According to patent publication US20250026752A1, “POSITIVE ALLOSTERIC MODULATORS OF THE MUSCARINIC ACETYLCHOLINE RECEPTOR M4” (Vanderbilt University, priority 2021, published 2025):
Where two headings read alike, the source gives them in different places.

Molecular target: T1, human mAChR M4 (Homo sapiens, UniProt P08173)
T1 construct: expressed in transfected cells; host or cells: CHO-K1 (ATCC), stably expressing hM4 and Gqi5
T1 sequence (P08173 1-479): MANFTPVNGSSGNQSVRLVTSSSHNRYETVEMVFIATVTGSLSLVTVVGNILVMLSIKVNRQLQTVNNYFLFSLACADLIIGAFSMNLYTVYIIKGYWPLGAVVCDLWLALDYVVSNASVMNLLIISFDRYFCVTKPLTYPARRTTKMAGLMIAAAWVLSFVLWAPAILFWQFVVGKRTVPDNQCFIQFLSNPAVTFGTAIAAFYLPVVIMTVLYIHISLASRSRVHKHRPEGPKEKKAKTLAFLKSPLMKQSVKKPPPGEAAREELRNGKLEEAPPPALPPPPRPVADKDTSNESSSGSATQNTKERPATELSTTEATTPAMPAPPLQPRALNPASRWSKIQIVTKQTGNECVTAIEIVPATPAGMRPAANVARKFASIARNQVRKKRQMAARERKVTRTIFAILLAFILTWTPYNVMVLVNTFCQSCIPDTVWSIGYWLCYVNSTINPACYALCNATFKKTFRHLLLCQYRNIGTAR
Test: mAChR M4 cell-based functional assay: calcium flux (Fluo-4, FDSS), positive allosteric modulator activity on the EC20 acetylcholine response, hM4-Gqi5 CHO-K1 cells
Design: Emax: dose or concentration left out as unconfirmed
Settings: for Emax at 30 µM: CHO-K1, human M4, % ACh maximum at 30 μM; for EC50: PAM activity on EC20 acetylcholine response, calcium flux
Outline: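 CHO-K1 cells stably expressing human M4 with chimeric Gqi5, loaded with Fluo-4 AM for 50 min at 37° C. Compounds (11-point, 1:3 dilutions) added first, then an acetylcholine EC20 at 144 s; calcium read on FDSS at 1 Hz. EC50 is the half-maximal increase above the EC20 baseline, four-parameter logistic fit.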

[1] = human M4, read-out: Human M4 EC50

| SMILES | Emax at 30 µM [%] | EC50 [1] [µM] | Emax (CHO-K1) [%] | EC50 (Human M4 EC50, human M4) [µM] |
| --- | --- | --- | --- | --- |
| Cc1ncc(-c2cnc3c(c2)CN(c2nc(C(F)(F)F)nc4ccc(F)cc24)CC3)s1 [Compound 66, 5-[6-[6-fluoro-2-(trifluoromethyl)quinazolin-4-yl]-7,8-dihydro-5H-1,6-naphthyridin-3-yl]-2-methyl-thiazole] | 35 | 0.81 |  |  |
| Cc1ccc(-c2cnc3c(c2)CN(c2nc(C(F)(F)F)nc4ccc(F)cc24)CC3)cn1 [Compound 67, 6-fluoro-4-[3-(6-methyl-3-pyridyl)-7,8-dihydro-5H-1,6-naphthyridin-6-yl]-2-(trifluoromethyl)quinazoline] | 55 | 0.66 |  |  |
| Fc1ccc2ncnc(N3CCc4ncc(-n5cccn5)cc4C3)c2c1 [Compound 68, 6-fluoro-4-(3-pyrazol-1-yl-7,8-dihydro-5H-1,6-naphthyridin-6-yl)quinazoline] |  |  | 88 | 0.22 |
| Fc1ccc2ncnc(N3CCc4ncc(N5CCC(C(F)(F)F)n6nccc65)cc4C3)c2c1 (stereo not shown) [Compound 69, 6-fluoro-4-[3-[7-(trifluoromethyl)-6,7-dihydro-5H-pyrazolo[1,5-a]pyrimidin-4-yl]-7,8-dihydro-5H-1,6-naphthyridin-6-yl]quinazoline] | 71 | 0.12 |  |  |
| Cc1nc(N2CCc3ncc(Nc4cccnc4F)cc3C2)c2cc(F)ccc2n1 [Compound 70, 6-(6-fluoro-2-methyl-quinazolin-4-yl)-N-(2-fluoro-3-pyridyl)-7,8-dihydro-5H-1,6-naphthyridin-3-amine] | 85 | 0.13 |  |  |
| Fc1ncccc1Nc1cnc2c(c1)CN(c1ncnc3ccc(Cl)cc13)CC2 [Compound 71, 6-(6-chloroquinazolin-4-yl)-N-(2-fluoro-3-pyridyl)-7,8-dihydro-5H-1,6-naphthyridin-3-amine] | 82 | 0.14 |  |  |
| Cc1nc(N2CCc3ncc(Nc4cccnc4F)cc3C2)c2cc(Cl)ccc2n1 [Compound 72, 6-(6-chloro-2-methyl-quinazolin-4-yl)-N-(2-fluoro-3-pyridyl)-7,8-dihydro-5H-1,6-naphthyridin-3-amine] | 84 | 0.49 |  |  |
| Cc1nc(N2CCc3ncc(N4CCCn5nccc54)cc3C2)c2cc(F)ccc2n1 [Compound 73, 4-[3-(6,7-dihydro-5H-pyrazolo[1,5-a]pyrimidin-4-yl)-7,8-dihydro-5H-1,6-naphthyridin-6-yl]-6-fluoro-2-methyl-quinazoline] | 97 | 0.09 |  |  |
| Fc1ccc2ncnc(N3CCc4ncc(N5CCCn6nccc65)cc4C3)c2c1 [Compound 74, 4-[3-(6,7-dihydro-5H-pyrazolo[1,5-a]pyrimidin-4-yl)-7,8-dihydro-5H-1,6-naphthyridin-6-yl]-6-fluoro-quinazoline] | 82 | 0.01 |  |  |
| Cn1nccc1Nc1cnc2c(c1)CN(c1ncnc3ccc(F)cc13)CC2 [Compound 75, 6-(6-fluoroquinazolin-4-yl)-N-(2-methylpyrazol-3-yl)-7,8-dihydro-5H-1,6-naphthyridin-3-amine] | 100 | 0.03 |  |  |
| Fc1ccc2ncnc(N3CCc4ncc(N5CCOc6ncccc65)cc4C3)c2c1 [Compound 76, 1-[6-(6-fluoroquinazolin-4-yl)-7,8-dihydro-5H-1,6-naphthyridin-3-yl]-2,3-dihydropyrido[2,3-b][1,4]oxazine] | 98 | 0.03 |  |  |
| COc1ccc2ncnc(N3CCc4ncc(N5CCCn6nccc65)cc4C3)c2c1 [Compound 77, 4-[3-(6,7-dihydro-5H-pyrazolo[1,5-a]pyrimidin-4-yl)-7,8-dihydro-5H-1,6-naphthyridin-6-yl]-6-methoxy-quinazoline] | 127 | 0.07 |  |  |
| Cc1ccc2ncnc(N3CCc4ncc(N5CCCn6nccc65)cc4C3)c2c1 [Compound 78, 4-[3-(6,7-dihydro-5H-pyrazolo[1,5-a]pyrimidin-4-yl)-7,8-dihydro-5H-1,6-naphthyridin-6-yl]-6-methyl-quinazoline] | 129 | 0.03 |  |  |
| COc1ccc2ncnc(N3CCc4ncc(N5CCOc6ncccc65)cc4C3)c2c1 [Compound 79, 1-[6-(6-methoxyquinazolin-4-yl)-7,8-dihydro-5H-1,6-naphthyridin-3-yl]-2,3-dihydropyrido[2,3-b][1,4]oxazine] | 105 | 0.25 |  |  |
| COc1ccc2ncnc(N3CCc4ncc(Nc5ccnn5C)cc4C3)c2c1 [Compound 80, 6-(6-methoxyquinazolin-4-yl)-N-(2-methylpyrazol-3-yl)-7,8-dihydro-5H-1,6-naphthyridin-3-amine] | 98 | 0.5 |  |  |
| COc1ccc2ncnc(N3CCc4ncc(Nc5cccnc5F)cc4C3)c2c1 [Compound 81, N-(2-fluoro-3-pyridyl)-6-(6-methoxyquinazolin-4-yl)-7,8-dihydro-5H-1,6-naphthyridin-3-amine] | 95 | 0.46 |  |  |
| Fc1ccc2ncnc(N3CCc4ncc(Nc5cccnc5F)cc4C3)c2c1 [Compound 82, N-(2-fluoro-3-pyridyl)-6-(6-fluoroquinazolin-4-yl)-7,8-dihydro-5H-1,6-naphthyridin-3-amine] | 104 | 0.07 |  |  |
| Clc1ccc2ncnc(N3CCc4ncc(N5CCCn6nccc65)cc4C3)c2c1 [Compound 83, 6-chloro-4-[3-(6,7-dihydro-5H-pyrazolo[1,5-a]pyrimidin-4-yl)-7,8-dihydro-5H-1,6-naphthyridin-6-yl]quinazoline] | 108 | 0.02 |  |  |
| Cc1nc(N2CCc3ncc(N4CCCn5nccc54)cc3C2)c2cc(Cl)ccc2n1 [Compound 84] | 114 | 0.23 |  |  |
| Cc1nc(N2CCc3ncc(N4CCOc5ncccc54)cc3C2)c2cc(F)ccc2n1 [Compound 85, 1-[6-(6-fluoro-2-methyl-quinazolin-4-yl)-7,8-dihydro-5H-1,6-naphthyridin-3-yl]-2,3-dihydropyrido[2,3-b][1,4]oxazine] | 85 | 0.03 |  |  |
| Cc1nc(N2CCc3ncc(Nc4ccnn4C)cc3C2)c2cc(F)ccc2n1 [Compound 86, 6-(6-fluoro-2-methyl-quinazolin-4-yl)-N-(2-methylpyrazol-3-yl)-7,8-dihydro-5H-1,6-naphthyridin-3-amine] | 91 | 0.03 |  |  |
| Fc1ccc2nc(Cl)nc(N3CCc4ncc(N5CCCn6nccc65)cc4C3)c2c1 [Compound 87, 2-chloro-4-[3-(6,7-dihydro-5H-pyrazolo[1,5-a]pyrimidin-4-yl)-7,8-dihydro-5H-1,6-naphthyridin-6-yl]-6-fluoro-quinazoline] | 110 | 0.19 |  |  |
| Fc1ncccc1Nc1cnc2c(c1)CN(c1nc(Cl)nc3ccc(Cl)cc13)CC2 [Compound 88, 6-(2,6-dichloroquinazolin-4-yl)-N-(2-fluoro-3-pyridyl)-7,8-dihydro-5H-1,6-naphthyridin-3-amine] | 103 | 1.07 |  |  |
| Clc1ccc2nc(Cl)nc(N3CCc4ncc(N5CCCn6nccc65)cc4C3)c2c1 [Compound 89, 2,6-dichloro-4-[3-(6,7-dihydro-5H-pyrazolo[1,5-a]pyrimidin-4-yl)-7,8-dihydro-5H-1,6-naphthyridin-6-yl]quinazoline] | 109 | 0.25 |  |  |
| COc1ccc2ncnc(N3CCc4ncc(N5CCC(C(F)(F)F)n6nccc65)cc4C3)c2c1 (stereo not shown) [Compound 90, 6-methoxy-4-[3-[7-(trifluoromethyl)-6,7-dihydro-5H-pyrazolo[1,5-a]pyrimidin-4-yl]-7,8-dihydro-5H-1,6-naphthyridin-6-yl]quinazoline] | 76 | 1.36 |  |  |
| Cc1ccc2ncnc(N3CCc4ncc(N5CCC(C(F)(F)F)n6nccc65)cc4C3)c2c1 (stereo not shown) [Compound 91, 6-methyl-4-[3-[7-(trifluoromethyl)-6,7-dihydro-5H-pyrazolo[1,5-a]pyrimidin-4-yl]-7,8-dihydro-5H-1,6-naphthyridin-6-yl]quinazoline] | 116 | 0.13 |  |  |
| Cc1ccc2ncnc(N3CCc4ncc(N5CCOc6ncccc65)cc4C3)c2c1 [Compound 92, 1-[6-(6-methylquinazolin-4-yl)-7,8-dihydro-5H-1,6-naphthyridin-3-yl]-2,3-dihydropyrido[2,3-b][1,4]oxazine] | 122 | 0.12 |  |  |
| Fc1cc2ncnc(N3CCc4ncc(N5CCCn6nccc65)cc4C3)c2cc1F [Compound 93, 4-[3-(6,7-dihydro-5H-pyrazolo[1,5-a]pyrimidin-4-yl)-7,8-dihydro-5H-1,6-naphthyridin-6-yl]-6,7-difluoro-quinazoline] | 109 | 0.05 |  |  |
| Clc1nc(N2CCc3ncc(N4CCCn5nccc54)cc3C2)c2cccnc2n1 [Compound 94, 2-chloro-4-[3-(6,7-dihydro-5H-pyrazolo[1,5-a]pyrimidin-4-yl)-7,8-dihydro-5H-1,6-naphthyridin-6-yl]pyrido[2,3-d]pyrimidine] | 88 | 0.13 |  |  |
